In patent publication US6417187B2, “1,2,4-triazole based compounds that can be used as insecticides or acaricides and processes” (Dow AgroSciences LLC, priority 2000, dated 2002):
Read-outs that look alike come from different tables or passages of the source.

Legend:
Type in all cases: in vivo
[1] = system: tobacco budworm (Heliothis virescens); assay: Insecticidal test for tobacco budworm (cotton cotyledon leaf-disc dip); conditions: for pest or weed control at 400 ppm: Heliothis virescens, 120 h, read-out: TBW: activity at 400 ppm against tobacco budworm (% Control rating)
[2] = system: beet armyworm (Spodoptera exigua); assay: Insecticidal test for beet armyworm (treated lepidopteran diet); conditions: for pest or weed control at 400 ppm: Spodoptera exigua, 120 h, read-out: BAW: activity at 400 ppm against beet armyworm (% Control rating)
[3] = system: cabbage looper (Trichoplusia ni); assay: Insecticidal test for cabbage looper (cabbage leaf-disc dip); conditions: for pest or weed control at 400 ppm: Trichoplusia ni, 120 h, read-out: CL: activity at 400 ppm against cabbage looper (% Control rating)
[4] = system: cotton aphid (Aphis gossvpii); assay: Insecticidal test for cotton aphid (squash cotyledon spray); conditions: for pest or weed control at 50 ppm: 72 h, read-out: CA: activity at 50 ppm against cotton aphid (% Control rating)
[5] = system: two-spotted spider mite (Tetranychus urticae); assay: Insecticidal test for two-spotted spider mite, ovicide method; conditions: for pest or weed control at 2.5 ppm: Tetranychus urticae, foliar, 144 h, read-out: SM: activity at 2.5 ppm against two-spotted spider mite (% Control rating)
[6] = system: Sweetpotato Whitefly (Bemisia tabacia); assay: Insecticidal test for Sweetpotato Whitefly (cotton plant spray); conditions: for pest or weed control at 200 ppm: Bemisia, 312 h, read-out: WF: activity at 200 ppm against whitefly (% Control rating)
[7] = system: Brown Planthopper (Nilaparvata lugens); assay: Insecticidal test for Brown Planthopper (rice seedling roots in test solution)
[8] = system: Green Leafhopper (Nephotettix cincticeps); assay: Insecticidal test for Green Leafhopper (rice seedling roots in test solution)
[9] = 400 ppm, cotton cotyledon leaf-dip, 2nd instar larvae, 5 days
[10] = 400 ppm, treated diet, second-instar larvae, 5 days
[11] = 400 ppm, cabbage leaf-dip, 2nd instar larvae, 5 days
[12] = 50 ppm spray on infested squash cotyledons, 3 days, population reduction versus untreated
[13] = 200 ppm spray on cotton plants, 13 days, reduction of large nymphs
[14] = 10 ppm test solution, rice seedling roots, 3rd instar nymphs, mortality at 6 days
[15] = 2.5 ppm (table footnote), ovicide method on cotton leaf discs, 6 days

| Structure (SMILES) | BPH: activity at 10 ppm against brown planthopper (% Control rating) [7, 14] | GLH: activity at 10 ppm against green leafbopper (% Control rating) [8, 14] | TBW: activity at 400 ppm against tobacco budworm (% Control rating) [1, 9] | BAW: activity at 400 ppm against beet armyworm (% Control rating) [2, 10] | CL: activity at 400 ppm against cabbage looper (% Control rating) [3, 11] | CA: activity at 50 ppm against cotton aphid (% Control rating) [4, 12] | WF: activity at 200 ppm against whitefly (% Control rating) [6, 13] | SM: activity at 2.5 ppm against two-spotted spider mite (% Control rating) [5, 15] | further results |
| --- | --- | --- | --- | --- | --- | --- | --- | --- | --- |
| Cn1nc(-c2c(F)cccc2Cl)nc1-c1sc(C#C[Si](C)(C)C)c(Cl)c1Cl [Compound 1, 1-Methyl-3-(2-chloro-6-fluorophenyl)-5-(3,4-dichloro-5-(2-trimethylsilyl-ethynyl)-thien-2-yl) [1 2,4]triazole] | F (less than 50) | B (80-89) | – | – | – | – | – | – | pest or weed control at 400 ppm [1, 9]: 90 to 100%; pest or weed control at 400 ppm [2, 10]: 90 to 100%; pest or weed control at 400 ppm [3, 11]: 90 to 100%; pest or weed control at 50 ppm [4, 12]: 50 to 59%; pest or weed control at 2.5 ppm ([5]; in Gossypium hirsutum): 80 to 89%; pest or weed control at 200 ppm [6, 13]: < 50% |
| Cn1nc(-c2c(F)cccc2Cl)nc1-c1sc(C#CC(C)(C)C)c(Cl)c1Cl [Compound 3] | – | – | – | – | – | – | – | – | pest or weed control at 400 ppm [1, 9]: 60 to 69%; pest or weed control at 400 ppm [3, 11]: 90 to 100%; pest or weed control at 50 ppm [4, 12]: 90 to 100%; pest or weed control at 2.5 ppm [5, 15]: 80 to 89%; pest or weed control at 200 ppm [6, 13]: < 50% |
| Cn1nc(-c2c(F)cccc2Cl)nc1-c1sc(C#Cc2ccccc2)c(Cl)c1Cl [Compound 4] | E (50-59) | – | – | – | – | – | – | – | pest or weed control at 400 ppm [1, 9]: < 50%; pest or weed control at 400 ppm [2, 10]: 90 to 100%; pest or weed control at 400 ppm [3, 11]: 90 to 100%; pest or weed control at 50 ppm [4, 12]: 80 to 89%; pest or weed control at 2.5 ppm [5, 15]: 60 to 69%; pest or weed control at 200 ppm [6, 13]: < 50% |
| CCCOc1ccc(C#Cc2sc(-c3nc(-c4c(F)cccc4Cl)nn3C)c(Cl)c2Cl)cc1 [Compound 15] | F (less than 50) | F (less than 50) | F (less than 50) | D (60-69) | D (60-69) | D (60-69) | F (less than 50) | – | – |
| Cn1nc(-c2c(F)cccc2Cl)nc1-c1sc(C#Cc2cccc(F)c2F)c(Cl)c1Cl [Compound 27] | E (50-59) | F (less than 50) | D (60-69) | A (90-100) | A (90-100) | – | D (60-69) | F (less than 50) | – |
| CCN(CC)c1ncc(C#Cc2sc(-c3nc(-c4c(F)cccc4Cl)nn3C)c(Cl)c2Cl)cn1 [Compound 41] | E (50-59) | – | – | – | – | – | – | – | pest or weed control at 400 ppm [1, 9]: 60 to 69%; pest or weed control at 400 ppm [2, 10]: 90 to 100%; pest or weed control at 400 ppm [3, 11]: 80 to 89%; pest or weed control at 50 ppm [4, 12]: < 50%; pest or weed control at 2.5 ppm [5, 15]: < 50%; pest or weed control at 200 ppm [6, 13]: < 50% |
| CCCCCCc1ccc(C#Cc2sc(-c3nc(-c4c(F)cccc4Cl)nn3C)c(Cl)c2Cl)cc1 [Compound 54] | – | – | – | – | – | – | – | – | TBW: activity at 400 ppm against tobacco budworm (% Control rating) ([1]; in vivo): A (key: A: 90-100; B: 80-89; C: 70-79; D: 60-69; E: 50-59; F: less than 50; G: inactive); BAW: activity at 400 ppm against beet armyworm (% Control rating) ([2]; in vivo): A (key: A: 90-100; B: 80-89; C: 70-79; D: 60-69; E: 50-59; F: less than 50; G: inactive); CL: activity at 400 ppm against cabbage looper (% Control rating) ([3]; in vivo): B (key: A: 90-100; B: 80-89; C: 70-79; D: 60-69; E: 50-59; F: less than 50; G: inactive); CA: activity at 50 ppm against cotton aphid (% Control rating) ([4]; in vivo): E (key: A: 90-100; B: 80-89; C: 70-79; D: 60-69; E: 50-59; F: less than 50; G: inactive); WF: activity at 200 ppm against whitefly (% Control rating) ([6]; in vivo): F (key: A: 90-100; B: 80-89; C: 70-79; D: 60-69; E: 50-59; F: less than 50; G: inactive); BPH: activity at 10 ppm against brown planthopper (% Control rating) ([7]; in vivo): F (key: A: 90-100; B: 80-89; C: 70-79; D: 60-69; E: 50-59; F: less than 50; G: inactive); GLH: activity at 10 ppm against green leafbopper (% Control rating) ([8]; in vivo): F (key: A: 90-100; B: 80-89; C: 70-79; D: 60-69; E: 50-59; F: less than 50; G: inactive) |
| CCCCCCCc1ccc(C#Cc2sc(-c3nc(-c4c(F)cccc4Cl)nn3C)c(Cl)c2Cl)cc1 [Compound 55] | – | – | – | – | – | – | – | – | TBW: activity at 400 ppm against tobacco budworm (% Control rating) ([1]; in vivo): D (key: A: 90-100; B: 80-89; C: 70-79; D: 60-69; E: 50-59; F: less than 50; G: inactive); BAW: activity at 400 ppm against beet armyworm (% Control rating) ([2]; in vivo): A (key: A: 90-100; B: 80-89; C: 70-79; D: 60-69; E: 50-59; F: less than 50; G: inactive); CL: activity at 400 ppm against cabbage looper (% Control rating) ([3]; in vivo): A (key: A: 90-100; B: 80-89; C: 70-79; D: 60-69; E: 50-59; F: less than 50; G: inactive); CA: activity at 50 ppm against cotton aphid (% Control rating) ([4]; in vivo): F (key: A: 90-100; B: 80-89; C: 70-79; D: 60-69; E: 50-59; F: less than 50; G: inactive); WF: activity at 200 ppm against whitefly (% Control rating) ([6]; in vivo): F (key: A: 90-100; B: 80-89; C: 70-79; D: 60-69; E: 50-59; F: less than 50; G: inactive); BPH: activity at 10 ppm against brown planthopper (% Control rating) ([7]; in vivo): F (key: A: 90-100; B: 80-89; C: 70-79; D: 60-69; E: 50-59; F: less than 50; G: inactive); GLH: activity at 10 ppm against green leafbopper (% Control rating) ([8]; in vivo): F (key: A: 90-100; B: 80-89; C: 70-79; D: 60-69; E: 50-59; F: less than 50; G: inactive) |
| CCCCCCCOc1ccc(C#Cc2sc(-c3nc(-c4c(F)cccc4Cl)nn3C)c(Cl)c2Cl)cc1 [Compound 56] | F (less than 50) | – | A (90-100) | A (90-100) | A (90-100) | E (50-59) | F (less than 50) | – | – |
| Cc1c(C#Cc2ccccc2)csc1-c1nc(-c2c(F)cccc2Cl)nn1C [Compound 67] | – | – | B (80-89) | A (90-100) | – | A (90-100) | F (less than 50) | B (80-89) | – |
| CCCc1ccc(C#Cc2cc(C)c(-c3nc(-c4c(F)cccc4Cl)nn3C)s2)cc1 [Compound 72] | F (less than 50) | – | – | A (90-100) | B (80-89) | C (70-79) | F (less than 50) | F (less than 50) | – |
| CCCCC#Cc1cncc(-c2nc(-c3c(Cl)cncc3Cl)nn2C)c1 [Compound 86] | F (less than 50) | F (less than 50) | – | – | – | E (50-59) | F (less than 50) | C (70-79) | – |
| Cn1nc(-c2c(F)cccc2Cl)nc1-c1ccc(C#Cc2ccc(F)cc2)c(Cl)c1Cl [Compound 92] | F (less than 50) | F (less than 50) | – | A (90-100) | A (90-100) | A (90-100) | F (less than 50) | F (less than 50) | – |
| Cn1nc(-c2c(F)cccc2Cl)nc1-c1ccc(C#C[Si](C)(C)C)c(Cl)c1Cl [Compound 96] | – | – | F (less than 50) | A (90-100) | A (90-100) | D (60-69) | F (less than 50) | D (60-69) | – |
